Patent US8969332B2, “Aryloxy dihalopropenyl ether compounds and uses thereof” (Sinochem Corporation, priority 2011, dated 2015)

System: diamond back moth
Test: Field trial against diamond back moth on cabbage
Assay type: in vivo, Plutella xylostella
Protocol: Calculation Method: Decrease rate of insects (%)=(the number of insects before application−the number of insects after application) the number of insects before application×100 Control efficacy (%)=(decrease rate of insects in treated area decrease rate of insects in blank comparative area)/(100−decrease rate of insects in blank comparative area)×100
The trial was carried out in the test filed of Shenyang Research Institute of Chemical industry Ltd. The trial crop is cabbage (Variety: Zhonggan NO 8.). The dosage of the compound 1 are 75, 105, 150 g a.i./hm^2 and comparative agent pyridalyl is 105 g a.i./hm^2. The agent was applied once on 13 Jun. 2011. The application tool is Shandongweishi WS-16P type backpack manual sprayer. Evenly spraying to whole cabbage which is in rosette stage was conducted. Diamond back moth is originated at the peak time. The plot area is 10 m^2, 3 replicates and randomized block arrangement were set. The amount of spray liquid is 750 L/hm^2. It was sunny with the highest temperature of 29° C., and the lowest of 17° C. on the day of the application of the spray. The methods of investigation and calculation are the same as Example 13.

## FC(F)(F)c1ccc(Oc2ccc(OCCCOc3c(Cl)cc(OCC=C(Cl)Cl)cc3Cl)cc2)nc1 [Compound 1]
75 g a.i./hm^2, 10% EC, 1 day after treatment
  Control efficacy (%): 86.0%
75 g a.i./hm^2, 10% EC, 3 days after treatment
  Control efficacy (%): 98.7%
75 g a.i./hm^2, 10% EC, 7 days after treatment
  Control efficacy (%): 97.6%
105 g a.i./hm^2, 10% EC, 1 day after treatment
  Control efficacy (%): 93.4%
105 g a.i./hm^2, 10% EC, 3 days after treatment
  Control efficacy (%): 97.0%
105 g a.i./hm^2, 10% EC, 7 days after treatment
  Control efficacy (%): 97.8%
150 g a.i./hm^2, 10% EC, 1 day after treatment
  Control efficacy (%): 90.4%
150 g a.i./hm^2, 10% EC, 3 days after treatment
  Control efficacy (%): 97.9%
150 g a.i./hm^2, 10% EC, 7 days after treatment
  Control efficacy (%): 97.9%
